# Values of other authors, collected in patent publication US12472158B2, “Methods of treating trigeminal nerve pain” (Vanderbilt University, priority 2019, dated 2025).
# What was measured:
# [1] = lidocaine alone (active control group); medical literature and expert opinion
# goat model = settings: for duration of antinociceptive effect: intrathecal
# [2] = among the alpha-2 agonists
# [3] = test system: contraction of the nictitating membrane in cats; settings: i.v., dose giving 50% reduction of the nictitating membrane contraction
# subarachnoid space = settings: 75 mcg in 15 μl saline, intrathecal route
# α-2A adrenergic receptor = target: T1, α-2A adrenergic receptor (Homo sapiens, UniProt P08913); settings: α-2A vs α-2B and α-2C
# T1 sequence (P08913 1-465): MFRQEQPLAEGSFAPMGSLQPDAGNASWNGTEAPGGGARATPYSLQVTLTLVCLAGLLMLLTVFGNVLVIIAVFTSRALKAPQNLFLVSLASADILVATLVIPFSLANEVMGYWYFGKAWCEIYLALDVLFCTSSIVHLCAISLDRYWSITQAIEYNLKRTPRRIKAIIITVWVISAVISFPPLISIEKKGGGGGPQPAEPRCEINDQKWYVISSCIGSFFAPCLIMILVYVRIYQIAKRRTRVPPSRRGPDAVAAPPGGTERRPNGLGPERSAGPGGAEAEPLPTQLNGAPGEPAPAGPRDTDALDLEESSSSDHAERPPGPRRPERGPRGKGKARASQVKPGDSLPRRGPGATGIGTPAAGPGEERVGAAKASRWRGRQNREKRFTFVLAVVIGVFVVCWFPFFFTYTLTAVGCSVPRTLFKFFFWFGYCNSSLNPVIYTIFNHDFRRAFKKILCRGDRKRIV
smiles,measurement,setting,value
CCN(CC)CC(=O)Nc1c(C)cccc1C [lidocaine],mean duration of pain relief,[1],approximately 140 minutes
"Cl.N=C(N)NC(=O)Cc1c(Cl)cccc1Cl [guanfacine, N-amidino-2-(2,6-dichlorophenyl) acetamide]",elimination from spinal cord tissue,goat model; compared with clonidine,slower elimination
same,duration of antinociceptive effect,goat model,8 h
same,rate of sedation,[2],lowest rate of sedation
same,Reduction of the neck sympathicus stimulus ED50,[3],0.3 mg/kg
same,elimination half-life,in vivo,~17 h
same,oral bioavailability,oral,around 80%
same,renal excretion,share of elimination,~50%
same,rate of elimination from spinal cord tissue,rat model; compared to clonidine,lower rate of elimination
same,duration of anti-nociceptive effect,"rat model; rat model, intrathecal, both 25 mcg and 50 mcg",greater than 18 h
same,toxicity in the subarachnoid space,subarachnoid space,nontoxic
same,affinity for α-2A adrenergic receptor compared to α-2B and α-2C adrenergic receptor,α-2A adrenergic receptor,15- to 20 fold
Clc1cccc(Cl)c1N=C1NCCN1 [clonidine],duration of antinociceptive effect,goat model,5 h
same,time for anti-nociceptive effect to decline to baseline,"rat model; rat model, injection 50 mcg",≤ 4 h
"Cc1cccc(C)c1CC(=O)NC(=N)N [2,6-dimethylphenyl-acetyl-guanidine]",Reduction of the neck sympathicus stimulus ED50,[3],1.0 mg/kg
